Experimental data as given in ChEMBL document CHEMBL4382198, “Discovery of Risdiplam, a Selective Survival of Motor Neuron-2 ( SMN2) Gene Splicing Modifier for the Treatment of Spinal Muscular Atrophy (SMA)” (J Med Chem, 2018).

Key:
[1] = Lipophilicity, log D of the compound at pH 7.4; type: physicochemical; details: buffer
Mus musculus [2] = assay: In-vivo stabilization SMN2 mRNA in SMA delta7 ip dosed mouse assessed as increase in muscle size dosed daily starting from postnatal day 3 to postnatal day 14 by immunohistochemistry; type: functional, organism-based
[3] = Cardiotoxicity in cynomolgus monkey assessed as prolongation of QTc interval time; type: toxicity, Macaca fascicularis
[4] = AUC (0 to 24 hrs) in SMA neonatal delta7 mouse model at 0.1 mg/kg, ip dosed once daily starting from postnatal day 3 to postnatal day 9; type: ADME, organism-based; set-up: time < 24 hr, dose 0.1 mg/kg, route intraperitoneal; details: in vivo
[5] = Volume of distribution at steady state in cynomolgus monkey at 0.1 mg/kg, iv administered as single dose; type: ADME, organism-based, Macaca fascicularis; details: in vivo, read-out: Vdss
hERG (KCNH2) = hERG (KCNH2) (Homo sapiens, UniProt Q12809); assay: Inhibition of human ERG at 37 degC; details: human
hERG (KCNH2), sequence (Q12809 whole entry): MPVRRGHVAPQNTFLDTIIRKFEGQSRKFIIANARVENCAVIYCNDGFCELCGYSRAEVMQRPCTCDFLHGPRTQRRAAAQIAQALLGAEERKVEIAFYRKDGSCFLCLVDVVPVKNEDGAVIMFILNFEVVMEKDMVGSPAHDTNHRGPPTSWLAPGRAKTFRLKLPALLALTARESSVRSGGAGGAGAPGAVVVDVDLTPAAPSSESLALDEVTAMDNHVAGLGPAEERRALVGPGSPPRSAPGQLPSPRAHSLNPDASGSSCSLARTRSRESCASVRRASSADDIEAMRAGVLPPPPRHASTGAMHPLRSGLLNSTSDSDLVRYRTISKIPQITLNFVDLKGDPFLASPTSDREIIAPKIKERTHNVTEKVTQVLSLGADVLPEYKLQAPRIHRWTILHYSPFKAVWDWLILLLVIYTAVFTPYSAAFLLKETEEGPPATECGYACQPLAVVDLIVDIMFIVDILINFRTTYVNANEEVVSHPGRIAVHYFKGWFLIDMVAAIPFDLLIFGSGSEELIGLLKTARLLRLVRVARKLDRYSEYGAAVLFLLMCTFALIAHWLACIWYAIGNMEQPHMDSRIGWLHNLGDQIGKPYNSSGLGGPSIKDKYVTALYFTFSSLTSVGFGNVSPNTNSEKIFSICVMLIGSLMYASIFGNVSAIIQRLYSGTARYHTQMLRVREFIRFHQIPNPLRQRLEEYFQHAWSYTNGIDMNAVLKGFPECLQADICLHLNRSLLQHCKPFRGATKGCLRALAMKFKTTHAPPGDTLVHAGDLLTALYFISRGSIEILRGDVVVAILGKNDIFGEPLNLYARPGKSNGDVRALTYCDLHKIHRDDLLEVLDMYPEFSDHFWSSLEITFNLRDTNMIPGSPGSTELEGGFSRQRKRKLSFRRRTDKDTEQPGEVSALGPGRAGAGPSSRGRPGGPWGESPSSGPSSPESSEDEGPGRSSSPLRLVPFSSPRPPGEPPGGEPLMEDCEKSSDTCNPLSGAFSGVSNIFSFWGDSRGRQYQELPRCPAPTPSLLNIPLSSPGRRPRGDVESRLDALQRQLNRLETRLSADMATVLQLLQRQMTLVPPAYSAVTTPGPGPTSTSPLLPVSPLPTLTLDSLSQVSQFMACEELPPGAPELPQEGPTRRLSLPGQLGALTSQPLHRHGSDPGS

Mus musculus [6] = assay: In-vivo stabilization of SMN2 mRNA in SMA neonatal delta7 mouse model assessed as increase in SMN protein levels in quadriceps at 1 mg/kg, ip dosed once daily starting from postnatal day 3 to postnatal day 9 relative to control; type: functional
Mus musculus [7] = assay: In-vivo stabilization of SMN2 mRNA in SMA neonatal delta7 mouse model assessed as increase in SMN protein levels in brain at 0.3 mg/kg, ip dosed once daily starting from postnatal day 3 to postnatal day 9 relative to control; type: functional
[8] = Volume of distribution at steady state in rat at 1.9 mg/kg, iv administered as single dose; type: ADME, organism-based; details: in vivo, read-out: Vdss
[9] = target: Survival motor neuron protein (Homo sapiens) (UniProt Q16637); assay: Activation of SMN protein in human SMA-derived fibroblasts after 48 hrs by HTRF assay
Survival motor neuron protein (Homo sapiens), sequence (Q16637 whole entry): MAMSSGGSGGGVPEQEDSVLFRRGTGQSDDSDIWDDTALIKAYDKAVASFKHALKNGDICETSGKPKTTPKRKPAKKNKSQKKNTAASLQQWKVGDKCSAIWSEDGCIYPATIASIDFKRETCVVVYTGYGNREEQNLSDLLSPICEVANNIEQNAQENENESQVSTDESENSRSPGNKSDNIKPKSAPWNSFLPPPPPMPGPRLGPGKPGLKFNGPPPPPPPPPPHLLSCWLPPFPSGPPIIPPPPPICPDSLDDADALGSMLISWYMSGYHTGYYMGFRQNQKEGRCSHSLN

[10] = Fraction unbound in human plasma; type: ADME, cell-free
[11] = Stabilization of human APLP2 mRNA splicing expressed in human SMA-derived fibroblasts at 121 to 605 nM by RT-qPCR analysis; type: ADME; details: 0.605 µM
[12] = Chronic toxicity in retina of po dosed cynomolgus monkey assessed as effect on photo-receptor layers after 39 weeks by histological analysis; type: organism-based, Macaca fascicularis; details: in vivo, 6552 h
Mus musculus [13] = assay: In-vivo stabilization of SMN2 mRNA in SMA adult C/C allele mouse model assessed as increase in SMN protein levels in brain at 10 mg/kg, po dosed once daily for 10 days relative to control; type: functional
Mus musculus [14] = assay: In-vivo stabilization of SMN2 mRNA in SMA adult C/C allele mouse model assessed as increase in SMN protein levels in brain at 1 mg/kg, po dosed once daily for 10 days relative to control; type: functional
[15] = Stabilization of human MADD mRNA splicing expressed in human SMA-derived fibroblasts at 121 to 605 nM by RT-qPCR analysis; type: ADME; details: 0.605 µM
[16] = Chronic toxicity in retina of po dosed cynomolgus monkey assessed as formation of scotopic depressed B-waves after 39 weeks by ERG analysis; type: organism-based, Macaca fascicularis; details: in vivo, 6552 h
[17] = Clearance in rat at 1.9 mg/kg, iv administered as single dose; type: ADME, organism-based; details: in vivo
[18] = Oral bioavailability in cynomolgus monkey at 0.5 mg/kg administered as single dose; type: ADME, organism-based, Macaca fascicularis; details: in vivo
[19] = Chronic toxicity in retina of po dosed cynomolgus monkey assessed as RPE hypertrophy 39 weeks by histological analysis; type: organism-based, Macaca fascicularis; details: in vivo, 6552 h
Mus musculus [20] = assay: In-vivo stabilization of SMN2 mRNA in SMA adult C/C allele mouse model assessed as increase in SMN protein levels in brain at 3 mg/kg, po dosed once daily for 10 days relative to control; type: functional
[21] = Efflux ratio of permeability in human SMA-derived fibroblasts; type: ADME, cell-based, Fibroblast; details: not told
Mus musculus [22] = assay: In-vivo stabilization of SMN2 mRNA in SMA neonatal delta7 mouse model assessed as increase in SMN protein levels in quadriceps at 10 mg/kg, ip dosed once daily starting from postnatal day 3 to postnatal day 9 relative to control; type: functional
[23] = Stabilization of human STRN3 mRNA splicing expressed in human SMA-derived fibroblasts at 121 to 605 nM by RT-qPCR analysis; type: ADME; details: 0.605 µM
Mus musculus [24] = assay: In-vivo stabilization of SMN2 mRNA in SMA neonatal delta7 mouse model assessed as increase in SMN protein levels in quadriceps at 0.1 mg/kg, ip dosed once daily starting from postnatal day 3 to postnatal day 9 relative to control; type: functional
[25] = Toxicity in po dosed rat assessed phospholipidosis administered via gavage up to 26 weeks; type: organism-based; details: in vivo, 4368 h
[26] = Fraction unbound in mouse plasma; type: ADME, cell-free
[27] = Half life in rat at 5.5 mg/kg, po administered as single dose; type: ADME, organism-based; details: in vivo
NIH3T3 = assay: Phototoxicity in mouse 3T3 cells assessed as decrease in cell viability at 9 uM in presence of UV light by neutral red uptake assay; type: cell-based; details: nih3t3, 9 µM
Mus musculus [28] = assay: In-vivo stabilization of SMN2 mRNA in SMA neonatal delta7 mouse model assessed as increase in SMN protein levels in quadriceps at 0.3 mg/kg, ip dosed once daily starting from postnatal day 3 to postnatal day 9 relative to control; type: functional
Mus musculus [29] = assay: In-vivo stabilization of SMN2 mRNA in SMA adult C/C allele mouse model assessed as increase in SMN protein levels in quadriceps at 10 mg/kg, po dosed once daily for 10 days relative to control; type: functional
Mus musculus [30] = assay: In-vivo stabilization SMN2 mRNA in SMA delta7 ip dosed mouse assessed as increase in number of vGlut1 inputs in L3 to L5 spinal cord dosed daily starting from postnatal day 3 to postnatal day 14 by immunohistochemistry; type: functional, organism-based
[31] = Clearance in cynomolgus monkey at 0.1 mg/kg, iv administered as single dose; type: ADME, organism-based, Macaca fascicularis; details: in vivo
Mus musculus [32] = assay: In-vivo stabilization of SMN2 mRNA in SMA neonatal delta7 mouse model assessed as increase in SMN protein levels in brain at 10 mg/kg, ip dosed once daily starting from postnatal day 3 to postnatal day 9 relative to control; type: functional
Mus musculus [33] = assay: In-vivo stabilization SMN2 mRNA in SMA delta7 ip dosed mouse assessed as increase in percentage of fully innervated NMJs dosed daily starting from postnatal day 3 to postnatal day 14 by immunohistochemistry; type: functional, organism-based
[34] = Effect on FOXM1b/c mRNA splicing in human induced pluripotent stem cells by RT-qPCR analysis; type: ADME; details: Homo sapiens
[35] = Half life in cynomolgus monkey at 0.5 mg/kg, po administered as single dose; type: ADME, organism-based, Macaca fascicularis; details: in vivo
[36] = Chronic toxicity in retina of po dosed cynomolgus monkey assessed as effect on outer nuclear layers after 39 weeks by histological analysis; type: organism-based, Macaca fascicularis; details: in vivo, 6552 h
[37] = Chronic toxicity in retina of po dosed cynomolgus monkey assessed as formation of microcystic spaces in the inner retinal layers after 39 weeks by OCT analysis; type: organism-based, Macaca fascicularis; details: in vivo, 6552 h
[38] = Chronic toxicity in retina of po dosed cynomolgus monkey assessed as excess vacuolation of inner nuclear layer after 39 weeks by histological analysis; type: organism-based, Macaca fascicularis; details: in vivo, 6552 h
[39] = AUC (0 to 24 hrs) in SMA adult C/C allele mouse model at 1 mg/kg, po dosed once daily for 10 days; type: ADME, organism-based; set-up: dose 1 mg/kg, time < 24 hr, route oral; details: in vivo

Question: For `Cc1cn2nc(-c3cc(=O)n4cc(N5CCNC6(CC6)C5)ccc4n3)cc(C)c2n1`, which logD [1] is on record?
Answer: The logD was 2.5.

Question: And the Activity (Mus musculus [2])?
Answer: Its Activity is “Dose-dependent effect”.

Question: What about the Activity [3] of the same compound?
Answer: The Activity was “Non-Toxic”.

Question: What about the pKa (physchem) of the same compound?
Answer: The pKa was 6.8.

Question: And the AUC at 24 h [4]?
Answer: The AUC at 24 h was 2200 ng·h/mL.

Question: And the Vd [5]?
Answer: The Vd was 2 L/kg.

Question: What about the IC20 (hERG (KCNH2)) of the same compound?
Answer: The IC20 was over 5000 nM.

Question: And the Activity (Mus musculus [6])?
Answer: Its Activity is 210%.

Question: And the Activity (Mus musculus [7])?
Answer: Its Activity is 90%.

Question: And the Vd [8]?
Answer: The Vd was 3.1 L/kg.

Question: What about the EC1.5 [9] of the same compound?
Answer: The EC1.5 was 29 nM.

Question: What about the fraction unbound [10] of the same compound?
Answer: Its fraction unbound is 0.11.

Question: And the Activity [11]?
Answer: The Activity was “Non-Toxic”.

Question: And the Activity [12]?
Answer: Its Activity is “Toxic”.

Question: What about the Activity (Mus musculus [13]) of the same compound?
Answer: Its Activity is 100%.

Question: What about the Activity (Mus musculus [14]) of the same compound?
Answer: Its Activity is 0%.

Question: What about the Activity [15] of the same compound?
Answer: The Activity was “Non-Toxic”.

Question: And the Activity [16]?
Answer: The Activity was “Toxic”.

Question: What about the clearance [17] of the same compound?
Answer: The clearance was 8.9 mL/min/kg.

Question: And the bioavailability [18]?
Answer: Its bioavailability is 43%.

Question: What about the Activity [19] of the same compound?
Answer: Its Activity is “Toxic”.

Question: What about the Activity (Mus musculus [20]) of the same compound?
Answer: The Activity was 17%.

Question: And the efflux ratio [21]?
Answer: The efflux ratio was 2.2.

Question: And the Activity (Mus musculus [22])?
Answer: The Activity was 241%.

Question: And the Activity [23]?
Answer: Its Activity is “Non-Toxic”.

Question: And the Activity (Mus musculus [24])?
Answer: Its Activity is 32%.

Question: And the Activity [25]?
Answer: Its Activity is “Non-Toxic”.

Question: And the fraction unbound [26]?
Answer: Its fraction unbound is 0.1.

Question: And the half-life [27]?
Answer: Its half-life is 6.4 h.

Question: And the Activity (NIH3T3)?
Answer: The Activity was “Non-Toxic”.

Question: What about the Activity (Mus musculus [28]) of the same compound?
Answer: The Activity was 64%.

Question: And the Activity (Mus musculus [29])?
Answer: Its Activity is 49%.

Question: What about the Activity (Mus musculus [30]) of the same compound?
Answer: Its Activity is “Dose-dependent effect”.

Question: And the clearance [31]?
Answer: The clearance was 5.7 mL/min/kg.

Question: What about the Activity (Mus musculus [32]) of the same compound?
Answer: The Activity was 202%.

Question: What about the Activity (Mus musculus [33]) of the same compound?
Answer: Its Activity is “Dose-dependent effect”.

Question: And the IC50 [34]?
Answer: The IC50 was 113 nM.

Question: And the half-life [35]?
Answer: The half-life was 5.4 h.

Question: What about the Activity [36] of the same compound?
Answer: Its Activity is “Toxic”.

Question: And the Activity [37]?
Answer: The Activity was “Toxic”.

Question: What about the Activity [38] of the same compound?
Answer: The Activity was “Toxic”.

Question: And the AUC at 24 h [39]?
Answer: The AUC at 24 h was 9000 ng·h/mL.
